The values that follow are results of earlier work, collected in patent publication US9635858B2, “Pesticide and a method of controlling a wide variety of pests” (GOWAN COMERCIO INTERNACIONAL E SERVICOS LIMITADA, priority 2011, dated 2017).

The conditions of this data set: rats; cited from earlier work.

Turning to `C/C=C(\C)C(=O)O[C@H]1C[C@@H](OC(C)=O)[C@@]2(C(=O)OC)CO[C@H]3[C@@H](O)[C@@](C)([C@]45O[C@@]4(C)[C@H]4C[C@@H]5O[C@@H]5OC=C[C@@]54O)C4[C@]1(CO[C@]4(O)C(=O)OC)[C@@H]32` (stereo partly shown) [Azadirachtin], the LD50 is > 3,540 mg/kg.
